Converted amounts (≈) assume the structure as drawn.
Tests used:
[1] = system: U-937; assay: Cytotoxicity against human U937 cells after 72 hrs by MTT assay; assay type: functional; conditions: U-937, 72 h, read-out: LC50 (the source's name)
[2] = system: Plasmodium falciparum; assay: Antimalarial activity against chloroquine-sensitive Plasmodium falciparum 3D7 incubated for 48 hrs by malstat reagent based LDH release assay; assay type: functional, organism-based; conditions: 3D7, 48 h
[3] = system: Leishmania panamensis; assay: Antileishmanial activity against EpiR/GFP fused Leishmania panamensis MHOM/CO/87/UA140 intracellular amastigotes infected in human […] cells after 72 hrs by flow cytometric method; assay type: functional, organism-based; conditions: MHOM/CO/87/UA140, 72 h
[4] = system: Trypanosoma cruzi; assay: Antitrypanosomal activity against Trypanosoma cruzi Tulahuen amastigote forms infected in human U937 cells after 72 hrs by beta-galactosidase reporter gene assay; assay type: functional, organism-based; conditions: U-937, 72 h

Structure (SMILES): C[C@@H]1[C@H](O)[C@@H](C)/C=C/C=C/C=C/C=C/C=C/C=C/C=C/[C@H](O[C@@H]2O[C@H](C)[C@@H](O)[C@H](N)[C@@H]2O)C[C@@H]2O[C@](O)(C[C@@H](O)C[C@@H](O)[C@H](O)CC[C@@H](O)C[C@@H](O)CC(=O)O[C@H]1C)C[C@H](O)[C@H]2C(=O)O [AMPHOTERICIN B]
- CC50 [1]: 36 µg/mL (≈ 39 µM)

Structure (SMILES): O=C1NCC(c2cc3cc(Br)ccc3[nH]c2=O)Nc2ccccc21 (configuration not stated)
- CC50 [1]: 57 µg/mL (≈ 148 µM)
- EC50 [2]: 13.6 µg/mL (≈ 35.4 µM)
- EC50 [3]: 15.3 µg/mL (≈ 39.7 µM)

Structure (SMILES): CCCCOc1nc2ccc(Br)cc2cc1C1CNC(=O)c2ccccc2N1 (configuration not stated)
- CC50 [1]: > 200 µg/mL
- EC50 [2]: 50.8 µg/mL (≈ 115 µM)
- EC50 [3]: 34.2 µg/mL (≈ 77.6 µM)

Structure (SMILES): O=C1NCC(c2cc3cc(Cl)ccc3[nH]c2=O)Nc2ccccc21 (configuration not stated)
- CC50 [1]: 192 µg/mL (≈ 566 µM)
- EC50 [2]: 43.2 µg/mL (≈ 127 µM)
- EC50 [4]: 123 µg/mL (≈ 361 µM)
- EC50 [3]: 19.4 µg/mL (≈ 57.2 µM)

Structure (SMILES): O=C(Cn1ccnc1[N+](=O)[O-])NCc1ccccc1 [BENZNIDAZOLE]
- CC50 [1]: 180 µg/mL (≈ 692 µM)

Source: ChEMBL document CHEMBL4138146, “A Schmidt rearrangement-mediated synthesis of novel tetrahydro-benzo[1,4]diazepin-5-ones as potential anticancer and antiprotozoal agents” (Eur J Med Chem, 2017)
